According to US20210205223A1, “PROPELLANT-FREE FORMULATION FOR INHALATION” (priority 2020, published 2021):
Where a name gives a salt, the structure may show the parent alone.

Conditions: solution of sample 1 from soft mist inhaler; ACI 28.3 L/minute, ambient temperature, RH 90%
Description: The aerodynamic particle size distribution was determined using an Andersen Scale Impactor (ACI). The soft mist inhaler was held close to the ACI inlet until no aerosol was visible. The flow rate of the ACI was set to 28.3 L/minute and was operated under ambient temperature and a relative humidity (RH) of 90%.
Fractions of the dose were deposited at different stages of the ACI, in accordance with the particle size of the fraction. Each fraction was washed from the stage and analyzed using HPLC.
The particle size distribution was expressed in terms of mass median aerodynamic diameter (MMAD) and Geometric Standard Deviation (GSD).

With C[N+]1(C)CCC(OC(=O)C(O)(c2ccccc2)C2CCCC2)C1.[Br-] (centres unmarked) [Glycopyrronium bromide] the “MMAD (mass median aerodynamic diameter)” value was 4.91 μm.
For COc1ccc(CC(C)NCC(O)c2ccc(O)c(NC=O)c2)cc1 (centres unmarked) [Formoterol fumarate, N-[2-hydroxy-5-(1-hydroxy-2-((2-(4-methoxyphenyl)-1-methylethy-1)amino)-ethyl)phenyl] formamide], the “MMAD (mass median aerodynamic diameter)” value was 4.49 μm.
